Publication PMC9995496, “A screen for MeCP2-TBL1 interaction inhibitors using a luminescence-based assay” (Scientific Reports, 2023)
Counter-ions that a name gives are not always drawn. Numbered stars: 1 amine (or outer) side, 2 acyl side, 3 side chain; on linkers, the order of the positions; unused ones are H or OH. Bridge positions count the residues as written; N and C are the ends. Square brackets hold non-standard residues; d marks the D form. Peptide text beside a SMILES is read from it. * marks the point of attachment. pTerphenylCO(4''-OnC5H11) = CCCCCOc1ccc(-c2ccc(-c3ccc(C(=O)*)cc3)cc2)cc1; Orn(4R-OH,5R-OH) = O=C([C@H](C[C@@H](O)[C@@H](O)N[*:3])N[*:1])[*:2]; hTyr(3S-OH,4S-OH) = N[C@H](C(=O)O)[C@H](O)[C@@H](O)c1ccc(O)cc1; Pro(3S-OH,4S-Me) = C[C@H]1CN[C@H](C(=O)O)[C@H]1O; Hyp = O=C(O)[C@@H]1C[C@@H](O)CN1

What follows are compounds tested on PRKACA-PRKAR2A interaction (SmBiT-PRKACA / LgBiT-PRKAR2A), protein kinase A. Details: counter-screen for NanoLuc interference, 0.5 h, 20 µM, inhibitor, Inh (PKA).
Set-up: NanoLuc complementation counter-screen in cell extract, PRKACA with PRKAR2A, loss of luminescence, detects NanoLuc interference

Row | SMILES | Inh (PKA) [%]
1 | CCOC(=O)[C@H](C)C[C@@H](Cc1ccc(-c2ccccc2)cc1)NC(=O)CCC(=O)O [UM0142165:01, AHU-377(Sacubitril)] | 9.484
2 | CCOC(=O)[C@@H](N)CCC(=O)N[C@@H](CSCc1ccccc1)C(=O)N[C@@H](C(=O)OCC)c1ccccc1 [UM0142188:01, Ezatiostat hydrochloride] | 1.044
3 | CC(=O)Oc1cc2c(s1)CCN(C(C(=O)C1CC1)c1ccccc1F)C2 (stereo not shown) [UM0142193:01, Prasugrel hydrochloride] | 10.44
4 | C[S+]([O-])c1ccc(-c2nc(-c3ccc(F)cc3)c(-c3ccncc3)[nH]2)cc1 (stereo not shown) [UM0142194:01, SB 203580 hydrochloride] | 15.97
5 | COc1ccc(S(=O)(=O)N(CCO)c2ccccc2CN(C)C/C=C/c2ccc(Cl)cc2)cc1 [UM0142198:01, KN-93 hydrochloride] | 38.66
6 | COc1ccc2[nH]c([S@@+]([O-])Cc3ncc(C)c(OC)c3C)nc2c1 [UM0142233:01, Esomeprazole Sodium] | 0.8501
7 | CCCC(CCC)C(=O)O [UM0142234:01, Divalproex Sodium] | 2.043
8 | COc1cc2nccc(Oc3ccc(NC(=O)C4(C(=O)Nc5ccc(F)cc5)CC4)cc3)c2cc1OC [UM0142237:01, Cabozantinib malate (XL184)] | 10.79
9 | CC(C)(C)c1nc(-c2cccc(NS(=O)(=O)c3c(F)cccc3F)c2F)c(-c2ccnc(N)n2)s1 [UM0142241:01, Dabrafenib (GSK2118436)] | 30.14

Same assay, conditions: counter-screen for NanoLuc interference; 0.5 h, 20 µM; inhibitor

Row | SMILES | Inh (PKA) [%]
10 | COC(=O)C[C@H](NC(=O)[C@H](C)NC(=O)[C@@H](NC(=O)[C@H](Cc1ccc(O)cc1)NC(=O)OCc1ccccc1)C(C)C)C(=O)CF [UM0142151:01, Z-YVAD-FMK] | 2.926
11 | Cc1nn(C)c2c1C(c1ccc(C(F)(F)F)cc1)C(C#N)=C(N)O2 (stereo not shown) [UM0142152:01, BQU57] | 14.94
12 | O=CC[C@@H](O)[C@H](O)[C@H](O)CO [UM0142158:01, 2-Deoxy-D-glucose] | 1.529
13 | Cc1c(-c2ccnn2C)cc(C(=O)NCc2ccc(S(C)(=O)=O)cn2)c(=O)n1-c1cccc(C(F)(F)F)c1 [UM0142161:01, Alvelestat] | 0.5125
14 | O=C(O)c1ccc(-c2c[nH]c3ncc(-c4ccccc4)cc23)cc1C1CCCC1 [UM0142163:01, GSK 650394] | 18.1
15 | COc1ccc(-c2ccccc2)cc1NS(=O)(=O)c1cc(Cl)cc(Cl)c1O [UM0142166:01, BMS-303141] | 65.56
16 | COc1cccc(OCCCN)c1-c1cc(Nc2cnc(C#N)cn2)n[nH]1 [UM0142169:01, LY2606368] | 14.04
17 | C=CC(=O)Nc1cc(Nc2nccc(-c3cn(C)c4ccccc34)n2)c(OC)cc1N(C)CCN(C)C [UM0142170:01, AZD-9291] | 6.598
18 | CC(C)Nc1cc(-c2c[nH]c(C(=O)N[C@H](CO)c3cccc(Cl)c3)c2)c(Cl)cn1 [UM0142171:01, VRT752271] | 17.24
19 | Cc1cc(C(N)=O)ccc1-n1c(CCC(=O)O)ccc1-c1ccc(-n2ccnc2)cc1 [UM0142172:01, N6022] | 4.784
20 | COc1cc(NC(=O)Nc2cccc(CNC(=O)O[C@H]3CCOC3)c2)ccc1-c1cnco1 [UM0142173:01, Merimepodib] | 28.05
21 | Cc1cc(-c2nc(-c3ccc(OC(F)(F)F)cc3)no2)nn1Cc1ccnc(N2CCN(C3CC3)CC2)c1 [UM0142175:01, BAY 87-2243] | 5.354
22 | COc1cc2c(NC3CCN(CC4CCCCC4)CC3)nc(N3CCCN(C(C)C)CC3)nc2cc1OCCCN1CCCCC1 [UM0142178:01, UNC 0631] | 0.9058
23 | CCn1c(=O)c(-c2ccc(-c3cncs3)cc2Cl)cc2cnc(Nc3ccc(N4CCN(C)CC4)cc3)nc21 [UM0142182:01, FRAX597] | 16.18
24 | O=C(NCc1ccncc1)C12CC3CC(C1)CC(c1ccc(Cl)cc1)(C3)C2 [UM0142183:01, ABC294640] | 8.98
25 | N#Cc1cc(-c2n[nH]c(-c3ccncc3)n2)ccn1 [UM0142184:01, Topiroxostat] | 3.047
26 | CN[C@H](CC(C)C)C(=O)N[C@H]1C(=O)N[C@@H](CC(N)=O)C(=O)N[C@H]2C(=O)N[C@H]3C(=O)N[C@H](C(=O)N[C@H](C(=O)O)c4cc(O)cc(O)c4-c4cc3ccc4O)[C@H](O)c3ccc(c(Cl)c3)Oc3cc2cc(c3O[C@@H]2O[C@H](CO)[C@@H](O)[C@H](O)[C@H]2O[C@H]2C[C@](C)(N)[C@H](O)[C@H](C)O2)Oc2ccc(cc2Cl)[C@H]1O [UM0142186:01, Vancomycin hydrochloride] | -0.993
27 | CCCCCOc1ccc(-c2ccc(-c3ccc(C(=O)N[C@H]4C[C@@H](O)[C@@H](O)NC(=O)[C@@H]5[C@@H](O)[C@@H](C)CN5C(=O)[C@H]([C@@H](C)O)NC(=O)[C@H]([C@H](O)[C@@H](O)c5ccc(O)cc5)NC(=O)[C@@H]5C[C@@H](O)CN5C(=O)[C@H]([C@@H](C)O)NC4=O)cc3)cc2)cc1 [UM0142187:01, Anidulafungin] ({pTerphenylCO(4''-OnC5H11)}-[Orn(4R-OH,5R-OH)]T[Hyp][hTyr(3S-OH,4S-OH)]T[Pro(3S-OH,4S-Me)]; lactam 1-C) | 1.476
28 | c1cc(OCCN2CCCCC2)cc(-c2n[nH]c3ccc(-c4nnc[nH]4)cc23)c1 [UM0142189:01, CC-401] | 1.846
29 | COc1cc(F)c(F)c(Nc2ccc(I)cc2F)c1NS(=O)(=O)C1(C[C@H](O)CO)CC1 [UM0142191:01, Refametinib] | 65.39
30 | CN(C)C(=O)c1ccc(S(=O)(=O)c2ccc(NC(=O)[C@@](C)(O)C(F)(F)F)c(Cl)c2)cc1 [UM0142195:01, AZD7545] | 0.1491
31 | C[C@@H]1CCNC(=O)c2cc3ccc(C(=O)Nc4nc5ccccc5n4CCCN(C)C)cc3n21 [UM0142196:01, BIX 02565] | 22.65
32 | COc1cc2ncnc(Sc3nnc(C)s3)c2cc1OC [UM0142197:01, SKLB1002] | -0.2342

Row | SMILES | Inh (PKA) [%]
33 | O=C1c2ccccc2C(=O)c2oc(-c3cccnc3)nc21 [UM0142199:01, SJB3-019A] | 9.933
34 | CC(C)(C)NCC(O)c1cc(O)cc(O)c1 (stereo not shown) [UM0142204:01, Terbutaline Sulfate] | 1.128
35 | CNC[C@H](O)c1ccc(O)c(O)c1 [UM0142209:01, L-Adrenaline] | 7.349
36 | COCCc1ccc(OCC(O)CNC(C)C)cc1 (stereo not shown) [UM0142210:01, Metoprolol Tartrate] | 1.896
37 | CC(C)(C)NCC(O)c1ccc(O)c(CO)c1 (stereo not shown) [UM0142213:01, Salbutamol Sulfate] | -0.5821
38 | c1ccc2c(c1)CCCC2C1=NCCN1 (stereo not shown) [UM0142214:01, Tetrahydrozoline HCl] | -0.4463
39 | COc1ccc(C[C@@H]2c3cc(OC)c(OC)cc3CC[N@+]2(C)CCC(=O)OCCCCCOC(=O)CC[N@@+]2(C)CCc3cc(OC)c(OC)cc3[C@H]2Cc2ccc(OC)c(OC)c2)cc1OC [UM0142215:01, Cisatracurium Besylate] | 2.146
40 | Cc1cccc(Cc2c[nH]cn2)c1C [UM0142216:01, Detomidine HCl] | 4.249
41 | COc1cc2c(cc1OC)CC(=O)N(CCCN(C)C[C@H]1Cc3cc(OC)c(OC)cc31)CC2 [UM0142218:01, Ivabradine HCl] | -0.5336
42 | Cc1cccc(C(C)c2c[nH]cn2)c1C (stereo not shown) [UM0142219:01, Medetomidine HCl] | 7.933
43 | CN1[C@@H]2CC(O)C[C@H]1[C@@H]1O[C@@H]12 (stereo partly shown) [UM0142220:01, Scopine] | 1.123
44 | N=C(N)NC(=N)NCCc1ccccc1 [UM0142225:01, Phenformin HCl] | 1.045
45 | CCC(=O)Nc1cccc(Oc2nc(Nc3ccc(N4CCN(C)CC4)cc3OC)ncc2Cl)c1 [UM0142226:01, WZ4003] | 29.29
46 | CC(C)(C#N)c1cc(Cn2cncn2)cc(C(C)(C)C#N)c1 [UM0142230:01, Anastrozole] | 5.113
47 | CCOC(=O)C1=C(C)NC(C)=C(C(=O)OC)C1c1cccc([N+](=O)[O-])c1 (stereo not shown) [UM0142235:01, Nitrendipine] | 91.42
48 | Cc1ccc(C(=O)Nc2ccc(CN3CCN(C)CC3)c(C(F)(F)F)c2)cc1C#Cc1cnc2[nH]ncc2c1 [UM0142238:01, GZD824] | 15.4
49 | CNC(=O)c1cc(Oc2ccc(NC(=O)Nc3cc(C(C)(C)C)nn3-c3ccc4ncccc4c3)c(F)c2)ccn1 [UM0142239:01, DCC-2036 (Rebastinib)] | 12.64
50 | O=C1Nc2ccc(I)cc2/C1=C/c1cc(Br)c(O)c(Br)c1 [UM0142240:01, GW5074] | 70.55
51 | CC1=C(C(=O)OC(C)C)C(c2cccc([N+](=O)[O-])c2)C(C(=O)OC2CN(C(c3ccccc3)c3ccccc3)C2)=C(N)N1 (stereo not shown) [UM0142244:01, Azelnidipine] | 35.77
52 | CCCC(=O)OCOC(=O)C1=C(C)NC(C)=C(C(=O)OC)C1c1cccc(Cl)c1Cl (stereo not shown) [UM0142245:01, Clevidipine Butyrate] | 81.79
53 | CCOC(=O)C1=C(C)NC(C)=C(C(=O)OC)C1c1cccc(Cl)c1Cl (stereo not shown) [UM0142246:01, Felodipine] | 92.04
54 | CCOC(=O)C1=C(C)NC(C)=C(C(=O)OCC)C1c1ccccc1/C=C/C(=O)OC(C)(C)C [UM0142247:01, Lacidipine] | 92.96
55 | CCCCN1CCCCC1C(=O)Nc1c(C)cccc1C (stereo not shown) [UM0142248:01, Bupivacaine HCl] | -0.8766
